In ChEMBL document CHEMBL4680259, “Discovery of bazedoxifene analogues targeting glycoprotein 130” (Eur J Med Chem, 2020):
The source made the active and inactive calls. The calls are words filed in the database; no cut-off is given here.

Assays:
A549 [1] = test: Induction of apoptosis in human A549 cells assessed as viable cells at 6 uM incubated for 24 hrs by annexin V-FITC and propidium iodide staining based flow cytometry analysis (reference value: 97.7 %); type: functional; conditions: read-out: Activity
A549 [2] = test: Induction of apoptosis in human A549 cells assessed as necrotic cells at 3 uM incubated for 24 hrs by annexin V-FITC and propidium iodide staining based flow cytometry analysis (reference value: 0.4 %); type: functional
[3] = molecular target: T1, Interleukin-6 receptor subunit beta (Homo sapiens) (UniProt P40189); test: Binding affinity to immobilized GP130 (unknown origin) assessed as response unit at 20 uM by SPR analysis
T1 sequence (whole entry): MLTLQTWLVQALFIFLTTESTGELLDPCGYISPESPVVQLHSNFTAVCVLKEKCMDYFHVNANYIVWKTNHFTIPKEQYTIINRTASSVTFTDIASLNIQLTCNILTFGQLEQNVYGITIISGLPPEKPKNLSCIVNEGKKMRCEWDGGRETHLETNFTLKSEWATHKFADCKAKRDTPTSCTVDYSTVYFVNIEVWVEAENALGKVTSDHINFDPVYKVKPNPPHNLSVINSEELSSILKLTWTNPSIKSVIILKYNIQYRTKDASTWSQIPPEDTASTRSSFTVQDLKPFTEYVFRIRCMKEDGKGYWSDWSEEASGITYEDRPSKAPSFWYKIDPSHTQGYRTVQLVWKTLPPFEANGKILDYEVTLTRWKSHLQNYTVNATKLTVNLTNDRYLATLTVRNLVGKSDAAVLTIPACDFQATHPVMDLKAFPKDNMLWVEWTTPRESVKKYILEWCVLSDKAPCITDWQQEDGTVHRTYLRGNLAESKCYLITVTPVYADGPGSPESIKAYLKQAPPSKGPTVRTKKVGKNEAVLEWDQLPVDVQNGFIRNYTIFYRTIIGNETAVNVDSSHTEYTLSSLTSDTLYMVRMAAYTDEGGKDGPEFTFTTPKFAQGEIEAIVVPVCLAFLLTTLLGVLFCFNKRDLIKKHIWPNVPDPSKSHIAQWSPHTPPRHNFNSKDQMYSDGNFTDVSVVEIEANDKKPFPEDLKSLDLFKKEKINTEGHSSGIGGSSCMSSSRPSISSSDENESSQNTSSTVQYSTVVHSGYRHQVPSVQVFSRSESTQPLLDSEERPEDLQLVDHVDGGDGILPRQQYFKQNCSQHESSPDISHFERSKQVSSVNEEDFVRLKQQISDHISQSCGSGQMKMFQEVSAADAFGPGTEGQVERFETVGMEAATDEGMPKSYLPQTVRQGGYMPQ

[4] = molecular target: T1, Interleukin-6 receptor subunit beta (Homo sapiens); test: Inhibition of GP130 in human A549 cells assessed as decrease in JAK2 phosphorylation at 3 to 9 uM incubated for 24 hrs by western blot analysis; type: cell-based; conditions: dose 3-9 µM
A549 [5] = test: Induction of apoptosis in human A549 cells assessed as late apoptotic cells at 6 uM incubated for 24 hrs by annexin V-FITC and propidium iodide staining based flow cytometry analysis (reference value: 1.4 %); type: functional
A549 [6] = test: Induction of ROS generation in human A549 cells assessed as fold increase in ROS level at 3 uM after 24 hrs by DCFH-DA staining based flow cytometric analysis relative to control; type: functional
A549 [7] = test: Induction of apoptosis in human A549 cells assessed as necrotic cells at 6 uM incubated for 24 hrs by annexin V-FITC and propidium iodide staining based flow cytometry analysis (reference value: 0.4 %); type: functional
[8] = AUC (0 to infinity) in rat at 5 mg/kg, ig; type: ADME, organism-based; design: route […], time infinity, dose 5 mg/kg; conditions: in vivo, po
A549 [9] = test: Antiproliferative activity against human A549 cells assessed as cell growth inhibition measured after 24 hrs by MTT assay; type: functional, cell-based; conditions: A549, 24 h
[10] = Volume of distribution in rat at 0.5 mg/kg, iv; type: ADME, organism-based; conditions: in vivo
A549 [11] = test: Induction of apoptosis in human A549 cells assessed as early apoptotic cells at 3 uM incubated for 24 hrs by annexin V-FITC and propidium iodide staining based flow cytometry analysis (reference value: 0.5 %); type: functional
[12] = molecular target: T1, Interleukin-6 receptor subunit beta (Homo sapiens); test: Inhibition of GP130 in human A549 cells assessed as reduction in bcl2 protein expression after 24 hrs by Western blot analysis; type: cell-based; conditions: dose 3-9 µM
[13] = Volume of distribution in rat at 5 mg/kg, ig; type: ADME, organism-based; conditions: in vivo, po
[14] = Half life in rat at 0.5 mg/kg, iv; type: ADME, organism-based; conditions: in vivo
[15] = Acute toxicity in ICR mouse assessed as abnormal behaviour at 120 mg/kg measured after 2 weeks; type: organism-based; conditions: in vivo, 336 h
[16] = molecular target: T1, Interleukin-6 receptor subunit beta (Homo sapiens); test: Inhibition of GP130 in human A549 cells assessed as reduction in STAT3 dimer DNA binding activity in nuclear extract in presence of hSIE probe at 3 to 9 uM after 24 hrs by EMSA analysis; type: subcellular; conditions: Nucleus, dose 3-9 µM
A549 [17] = test: Induction of apoptosis in human A549 cells assessed as increase in cleaved PARP level at 3 to 9 uM incubated for 24 hrs by Western blot analysis; type: functional, cell-based; conditions: dose 3-9 µM
[18] = Mean residence time in rat at 5 mg/kg, ig; type: ADME, organism-based; conditions: in vivo, po
A549 [19] = test: Induction of apoptosis in human A549 cells assessed as viable cells at 9 uM incubated for 24 hrs by annexin V-FITC and propidium iodide staining based flow cytometry analysis (reference value: 97.7 %); type: functional; conditions: read-out: Activity
A549 [20] = test: Antitumor activity against human A549 cells xenografted in nude mouse assessed as decrease in tumor weight at 20 mg/kg, ip administered daily for 21 days and measured every 2 to 3 days; type: functional; conditions: 504 h, time 21 day
[21] = Clearance in rat at 0.5 mg/kg, iv; type: ADME, organism-based; conditions: in vivo
A549 [22] = test: Potency index, ratio of bazedoxifene IC50 to test compound IC50 for antiproliferative activity against human A549 cells after 24 hrs by MTT assay; type: functional
[23] = molecular target: T2, Interleukin-6 receptor subunit beta (Homo sapiens, UniProt P40189); test: Binding affinity to immobilized GP130 (unknown origin) by SPR analysis
T2 sequence (P40189 whole entry): T1 sequence (whole entry)

[24] = molecular target: T1, Interleukin-6 receptor subunit beta (Homo sapiens); test: Inhibition of GP130 in human A549 cells assessed as decrease in IL6-induced STAT3 phosphorylation at Y705 residue at 9 uM incubated for 24 hrs by western blot analysis; type: cell-based
[25] = molecular target: T1, Interleukin-6 receptor subunit beta (Homo sapiens); test: Inhibition of GP130 in human A549 cells assessed as decrease in STAT3 phosphorylation at Y705 residue at 3 to 9 uM incubated for 24 hrs by western blot analysis; type: cell-based; conditions: dose 3-9 µM
A549 [26] = test: Induction of apoptosis in human A549 cells assessed as increase in cleaved caspase-3 level at 3 to 9 uM incubated for 24 hrs by Western blot analysis; type: functional, cell-based; conditions: dose 3-9 µM
A549 [27] = test: Induction of ROS generation in human A549 cells assessed as fold increase in ROS level at 9 uM after 24 hrs by DCFH-DA staining based flow cytometric analysis relative to control; type: functional
[28] = Toxicity in nude mouse xenografted with human A549 cells assessed as effect on body weight at 10 to 20 mg/kg, ip administered daily for 21 days and measured every 2 or 3 days; type: organism-based; conditions: in vivo, 504 h, dose 10-20 mg/kg, time 21 day
[29] = molecular target: T1, Interleukin-6 receptor subunit beta (Homo sapiens); test: Inhibition of GP130 in human A549 cells assessed as reduction in cyclin-D1 protein expression after 24 hrs by Western blot analysis; type: cell-based; conditions: dose 3-9 µM

NC(=O)N1N=C(c2ccc(C(F)(F)F)cc2)CC1c1cn(Cc2ccc(OCCN3CCCCCC3)cc2)c2ccc(Br)cc12 (centres undefined)
viability at 6 µM (A549 [1]): 91.5% | Activity (A549 [2]): 0.4% | Activity [3]: 28.3 RU | Activity [4]: Active | Activity (A549 [5]): 4.9% | fold change (FC) (A549 [6]): 1.93 | Activity (A549 [7]): 1.9% | AUC [8]: 329.9 ng·h/mL | IC50 (A549 [9]): 4.46 µM | Vd [10]: 14.6 L/kg | Activity (A549 [11]): 0.9% | inhibition [12]: Dose-dependent effect | Vd [13]: 12.6 L/kg | half-life [14]: 11.8 h | Activity [15]: Non-Toxic | inhibition [16]: Active | Activity (A549 [17]): Active | MRT [18]: 11.6 h | viability at 9 µM (A549 [19]): 60.6% | inhibition in vivo at 20 mg/kg (A549 [20]): 59% | clearance [21]: 14.5 mL/min/kg | Ratio IC50 (A549 [22]): 5.5 | Kd [23]: 3.8 µM | Activity [24]: Active | Activity [25]: Active | Activity (A549 [26]): Active | fold change (FC) (A549 [27]): 6.28 | Activity [28]: Non-Toxic | inhibition [29]: Dose-dependent effect
